Laboratory results taken from patent US9962388B2, “Pyrrolopyrimidine compounds used as TLR7 agonist” (priority 2014, dated 2018).

Target: Toll-like receptor 7 (Homo sapiens (Human), UniProt Q9NYK1)
Test: Toll-like receptor 7 in vitro receptor binding activity screen (HEK-blue hTLR7 cell, alkaline phosphatase/Quanti-Blue readout)
Type: cell-based
Details: HEK-blue hTLR7 cell, 24 h; read-out: TLR7 EC50
Protocol: Toll-Like Receptor 7 and Toll-Like Receptor 8 In Vitro Receptor Binding Activity Screen
HEK-blue hTLR7 cell and HEK-blue hTLR8 cell (available from InvivoGen)
1. Preparation of 96-well compound plate:
The compounds were gradient diluted with DMSO in 3-fold using liquid work station POD starting at a concentration of 10 mmol/L and 10 points were diluted (2nd column to 11th column, and each point was duplicated). At 12th column, 1 μL of 5 mg/mL positive compound R848 was added as positive control; and at 1st column, 1 μL of DMSO was added as negative control. Each well contained 1 μL of DMSO.
2. The cells in culture flask were collected and the cell density was diluted to 250,000 cells/mL.
3. 200 μL (50,000 cells/well) of cell suspension was added into prepared compound plate and the final concentration of DMSO in each well was 0.5%.
4. The culture plates containing cells and the compounds were incubated in CO2 incubator for 24 h at 37° C., 5% CO2.
5. After 24 h incubation, 20 μL of supernatant was removed from each well to a 96-well transparent assay plate. To each well of the assay plate was added 180 μL of Quanti-Blue reagent and the plate was incubated in an incubator at 37° C., 5% CO2 for 1 h.
6. After 1 h, the content of alkaline phosphatase in 20 μL of supernatant was determined using Microplate Reader OD650.
7. EC50 of each compound was obtained with Prism software.

Sequence of Toll-like receptor 7 (Q9NYK1 27-1049): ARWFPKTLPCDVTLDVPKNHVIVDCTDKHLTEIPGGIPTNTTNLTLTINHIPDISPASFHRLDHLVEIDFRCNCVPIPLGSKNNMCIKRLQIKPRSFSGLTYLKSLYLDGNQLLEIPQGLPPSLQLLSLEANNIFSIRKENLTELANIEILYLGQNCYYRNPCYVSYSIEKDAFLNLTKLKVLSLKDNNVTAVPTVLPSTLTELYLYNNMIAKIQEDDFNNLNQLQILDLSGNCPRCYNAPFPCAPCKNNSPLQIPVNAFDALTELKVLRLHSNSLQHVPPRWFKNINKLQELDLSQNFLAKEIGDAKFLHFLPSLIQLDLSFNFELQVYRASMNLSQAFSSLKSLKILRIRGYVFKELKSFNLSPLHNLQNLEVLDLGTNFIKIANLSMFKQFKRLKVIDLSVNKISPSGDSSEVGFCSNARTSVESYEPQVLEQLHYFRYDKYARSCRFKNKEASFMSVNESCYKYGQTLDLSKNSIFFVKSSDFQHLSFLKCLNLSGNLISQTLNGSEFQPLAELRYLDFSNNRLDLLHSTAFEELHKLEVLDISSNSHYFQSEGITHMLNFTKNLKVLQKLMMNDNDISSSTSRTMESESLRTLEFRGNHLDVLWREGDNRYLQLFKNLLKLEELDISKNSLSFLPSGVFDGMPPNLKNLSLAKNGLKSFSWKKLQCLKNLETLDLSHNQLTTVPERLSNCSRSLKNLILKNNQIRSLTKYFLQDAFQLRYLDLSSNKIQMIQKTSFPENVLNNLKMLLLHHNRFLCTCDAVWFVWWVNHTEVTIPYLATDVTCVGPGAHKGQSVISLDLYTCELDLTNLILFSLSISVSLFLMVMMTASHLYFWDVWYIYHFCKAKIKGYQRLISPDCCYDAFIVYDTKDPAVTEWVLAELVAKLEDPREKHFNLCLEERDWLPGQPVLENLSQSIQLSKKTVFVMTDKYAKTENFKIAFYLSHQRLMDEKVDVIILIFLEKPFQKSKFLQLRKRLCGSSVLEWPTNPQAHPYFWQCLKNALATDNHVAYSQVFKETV

Compound CCCCOc1nc(N)c2[nH]cc(Cc3cccc(CN4CCN(C)CC4)c3)c2n1 [Example 1, 2-butoxy-7-(3-((4-methylpiperazine-1-yl)methyl)benzyl)-5H-pyrrolo[3,2-d]pyrimidine-4-amine] has an EC50 of 1000 to 50000 nM.
For CCCCOc1nc(N)c2[nH]cc(Cc3cccc(CN4CCOCC4)c3)c2n1 [Example 2, 2-butoxy-7-(3-(morpholinomethyl)benzyl)-5H-pyrrolo[3,2-d]pyrimidine-4-amine], the EC50 was 1000 to 50000 nM.
CCCCOc1nc(N)c2[nH]cc(Cc3cccc(CN)c3)c2n1 [Example 3, 7-(3-(aminomethyl)benzyl)-2-butoxy-5H-pyrrolo[3,2-d]pyrimidine-4-amine] showed an EC50 of 1000 to 50000 nM.
CCCCOc1nc(N)c2[nH]cc(Cc3ccc(CN4CCC(F)(F)C4)cc3)c2n1 [Example 5] gave an EC50 of 1000 to 50000 nM.
Compound CCCCOc1nc(N)c2[nH]cc(Cc3ccc(CN4CCC(F)C4)cc3)c2n1 (stereo not drawn) [Example 6, 2-butoxy-7-(4-((3-fluoropyrrolidine-1-yl)methyl)benzyl)-5H-pyrrolo[3,2-d]pyrimidine-4-amine] has an EC50 of 100 to 1000 nM.
For CCCCOc1nc(N)c2[nH]cc(Cc3ccc(CN4CCC(O)C4)cc3)c2n1 (stereo not drawn) [Example 7, 1-(4-((4-amino-2-butoxy-5H-pyrrolo[3,2-d]pyrimidine-7-1)methyl)benzyl)pyrrolidine-3-ol], the EC50 was 100 to 1000 nM.
With CCCCOc1nc(N)c2[nH]cc(Cc3ccc(CN4CCCCC4)cc3)c2n1 [Example 8, 2-butoxy-7-(4-(piperidine-1-ylmethyl)benzyl)-5H-pyrrolo[3,2-d]pyrimidine-4-amine] the EC50 was 100 to 1000 nM.
Compound CCCCOc1nc(N)c2[nH]cc(Cc3ccc(CN4CCOCC4)cc3)c2n1 [Example 9, 2-butoxy-7-(4-(morpholinomethyl)benzyl)-5H-pyrrolo[3,2-d]pyrimidine-4-amine] has an EC50 of 1000 to 50000 nM.
CCCCOc1nc(N)c2[nH]cc(Cc3ccc(CN4CCN(C)CC4)cc3)c2n1 [Example 10, 2-butoxy-7-(4-((4-methylpiperazine-1-yl)methyl)benzyl)-5H-pyrrolo[3,2-d]pyrimidine-4-amine] showed an EC50 of 1000 to 50000 nM.
CCCCOc1nc(N)c2[nH]cc(Cc3ccc(CN(C)C)cc3)c2n1 [Example 11, 2-butoxy-7-(4-((dimethylamino)methyl)benzyl)-5H-pyrrolo[3,2-d]pyrimidine-4-amine] was tested, and the EC50 was 100 to 1000 nM.
With CCCCOc1nc(N)c2[nH]cc(Cc3ccc(CN(CC)CC)cc3)c2n1 [Example 12, 2-butoxy-7-(4-((diethylamino)methyl)benzyl)-5H-pyrrolo[3,2-d]pyrimidine-4-amine] the EC50 was 100 to 1000 nM.
CCCCOc1nc(N)c2[nH]cc(Cc3ccc(CN(CCC)CCC)cc3)c2n1 [Example 13, 2-butoxy-7-(4-((dipropylamino)methyl)benzyl)-5H-pyrrolo[3,2-d]pyrimidine-4-amine] was tested, and the EC50 was 100 to 1000 nM.
Work on CCCCOc1nc(N)c2[nH]cc(Cc3ccc(CN4CCC4)cc3)c2n1 [Example 14, 7-(4-(azetidin-1-ylmethyl)benzyl)-2-butoxy-5H-pyrrolo[3,2-d]pyrimidine-4-amine] yielded an EC50 of 100 to 1000 nM.
CCCCOc1nc(N)c2[nH]cc(Cc3ccc(CN4CC(OC)C4)cc3)c2n1 [Example 15, 2-butoxy-7-(4-((3-methoxylazetidin-1-yl)methyl)benzyl)-5H-pyrrolo[3,2-d]pyrimidine-4-amine] was tested, and the EC50 was 100 to 1000 nM.
Work on CCCCOc1nc(N)c2[nH]cc(Cc3ccc(CN4CCCN(C)CC4)cc3)c2n1 [Example 16, 2-butoxy-7-(4-((4-methyl-1,4-diazepan-1-yl)methyl)benzyl)-5H-pyrrolo[3,2-d]pyrimidine-4-amine] yielded an EC50 of 100 to 1000 nM.
CCCCOc1nc(N)c2[nH]cc(Cc3ccc(CN4CC(C)OC(C)C4)cc3)c2n1 (stereo not drawn) [Example 17, 2-butoxy-7-(4-((2,6-dimethylmorpholinyl)methyl)benzyl)-5H-pyrrolo[3,2-d]pyrimidine-4-amine] was tested, and the EC50 was 100 to 1000 nM.
CCCCOc1nc(N)c2[nH]cc(Cc3ccc(CN4C[C@@H]5C[C@H]4CO5)cc3)c2n1 [Example 18, 7-(4-((1 S,4S)-2-oxa-5-azabicyclo[2.2.1]heptane-5-ylmethyl)benzyl)-2-butoxy-5H-pyrrolo[3,2-d]pyrimidine-4-amine] was tested, and the EC50 was 100 to 1000 nM.
CCCCOc1nc(N)c2[nH]cc(Cc3ccc(CN4CCC(OC)CC4)cc3)c2n1 [Example 19, 2-butoxy-7-(4-((4-methoxylpiperidine-1-yl)methyl)benzyl)-5H-pyrrolo[3,2-d]pyrimidine-4-amine] was tested, and the EC50 was 100 to 1000 nM.
For CCCCOc1nc(N)c2[nH]cc(Cc3ccc(CN4CCN(C(C)C)CC4)cc3)c2n1 [Example 20, 2-butoxy-7-(4-((4-isopropylpiperazine-1-yl)methyl)benzyl)-5H-pyrrolo[3,2-d]pyrimidine-4-amine], the EC50 was 100 to 1000 nM.
CCCCOc1nc(N)c2[nH]cc(Cc3cccc(CCN4CCCC4)c3)c2n1 [Example 23, 2-butoxy-7-(3-(2-(pyrrolidine-1-yl)ethyl)benzyl)-5H-pyrrolo[3,2-d]pyrimidine-4-amine] showed an EC50 of 1000 to 50000 nM.
CCCCOc1nc(N)c2[nH]cc(Cc3ccc(C(C)N4CCCC4)cc3)c2n1 (stereo not drawn) [Example 24, 2-butoxy-7-(4-(1-(pyrrolidine-1-yl)ethyl)benzyl)-5H-pyrrolo[3,2-d]pyrimidine-4-amine] gave an EC50 of 100 to 1000 nM.
For CCCCOc1nc(N)c2[nH]cc(Cc3ccc(C4CCN(C)CC4)cc3)c2n1 [Example 25, 2-butoxy-7-(4-(1-methylpiperidine-4-yl)benzyl)-5H-pyrrolo[3,2-d]pyrimidine-4-amine], the EC50 was 1 to 100 nM.
In the case of CCCCOc1nc(N)c2[nH]cc(Cc3ccc(C4CCCN4C)cc3)c2n1 (stereo not drawn) [Example 26, 2-butoxy-7-(4-(1-methylpyrrolidine-2-yl)benzyl)-5H-pyrrolo[3,2-d]pyrimidine-4-amine], the EC50 is reported as 100 to 1000 nM.
With CCCCOc1nc(N)c2[nH]cc(Cc3ccc(N4CCN(C)CC4=O)cc3)c2n1 [Example 27, 1-(4-((4-amino-2-butoxy-5H-pyrrolo[3,2-d]pyrimidine-7-yl)methyl)phenyl)-4-methylpiperazine-2-one] the EC50 was 100 to 1000 nM.
CCCCOc1nc(N)c2[nH]cc(Cc3ccc4c(c3)CCNC4)c2n1 [Example 32, 2-butoxy-7-((1,2,3,4-tetrahydroisoquinoline-6-yl)methyl)-5H-pyrrolo[3,2-d]pyrimidine-4-amine] gave an EC50 of 100 to 1000 nM.
Work on CCCCOc1nc(N)c2[nH]cc(Cc3ccc4c(c3)CCN(C)C4)c2n1 [Example 33, 2-butoxy-7-((2-methyl-1,2,3,4-tetrahydroisoquinoline-6-yl)methyl)-5H-pyrrolo[3,2-d]pyrimidine-4-amine] yielded an EC50 of 100 to 1000 nM.
CCCCOc1nc(N)c2[nH]cc(Cc3ccc4c(c3)CCN(CC)C4)c2n1 [Example 34, 2-butoxy-7-((2-ethyl-1,2,3,4-tetrahydroisoquinoline-6-yl)methyl)-5H-pyrrolo[3,2-d]pyrimidine-4-amine] was tested, and the EC50 was 100 to 1000 nM.
Compound COCCOc1nc(N)c2[nH]cc(Cc3ccccc3)c2n1 [Example 35, 7-benzyl-2-(2-methoxylethoxyl)-5H-pyrrolo[3,2-d]pyrimidine-4-amine] has an EC50 of 1000 to 50000 nM.
With COCCOc1nc(N)c2[nH]cc(Cc3ccc(C)nc3)c2n1 [Example 36, 2-(2-methoxylethoxyl)-7-((6-methylpyridine-3-yl)methyl)-5H-pyrrolo[3,2-d]pyrimidine-4-amine] the EC50 was 1000 to 50000 nM.
COCCOc1nc(N)c2[nH]cc(Cc3ccc(Cl)cn3)c2n1 [Example 37, 7-((5-chloropyridine-2-yl)methyl)-2-(2-methoxylethoxyl)-5H-pyrrolo[3,2-d]pyrimidine-4-amine] was tested, and the EC50 was 1000 to 50000 nM.
